Measurements reported in patent US6461997B1, “Triazole sulfones having herbicidal activity” (Monsanto Technology LLC, priority 1999, dated 2002).

Key:
[1] = system: CHEAL (common lambsquarters); assay: Pre-emergence herbicidal activity, warm season; assay type: in vivo, Chenopodium album; conditions: GR80 = lowest tested rate (300, 100, 30, 10 g/ha) with 80% or greater inhibition; approx. 14 days after treating; 30/21° C.
Procedure, shortened: (§1)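 GR80 values derive from percent inhibition relative to untreated plants, read roughly 14 days after sowing and pre-emergence soil-surface treatment (compound in 50:50 acetone/water; rates typically 10, 30, 100, 300 g/ha). Warm-season weeds grew at 30/21° C day/night, cool-season ones at 18/13° C; an asterisk marks activity without reaching 80% at the highest rate.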

STEME (common chickweed) = assay: Pre-emergence herbicidal activity, cool season; assay type: in vivo, Stellaria media; conditions: lowest tested rate with 80% or greater inhibition; rates 300, 100, 30, 10 g/ha; about 14 days
Procedure, shortened: as §1

[2] = system: GALAP (catchweed bedstraw); assay: Pre-emergence herbicidal activity, cool season; assay type: in vivo, Galium aparine; conditions: lowest tested rate with 80% or greater inhibition; rates 300, 100, 30, 10 g/ha; about 14 days
Procedure, shortened: as §1

SASKR (russian thistle) = assay: Pre-emergence herbicidal activity, cool season; assay type: in vivo, Salsola kali; conditions: lowest tested rate with 80% or greater inhibition; rates 300, 100, 30, 10 g/ha; about 14 days
Procedure, shortened: as §1

[3] = system: LAMPU (purple deadnettle); assay: Pre-emergence herbicidal activity, cool season; assay type: in vivo, Lamium purpureum; conditions: lowest tested rate with 80% or greater inhibition; rates 300, 100, 30, 10 g/ha; about 14 days
Procedure, shortened: as §1

[4] = system: VERPE (creeping speedwell); assay: Pre-emergence herbicidal activity, cool season; assay type: in vivo, Veronica persicaria; conditions: lowest tested rate with 80% or greater inhibition; rates 300, 100, 30, 10 g/ha; about 14 days
Procedure, shortened: as §1

SINAR (wild mustard) = assay: Pre-emergence herbicidal activity, cool season; assay type: in vivo, Sinapis arvensis; conditions: lowest tested rate with 80% or greater inhibition; rates 300, 100, 30, 10 g/ha; about 14 days
Procedure, shortened: as §1

POLCO (wild buckwheat) = assay: Pre-emergence herbicidal activity, cool season; assay type: in vivo, Polygonum convolvulus; conditions: lowest tested rate with 80% or greater inhibition; rates 300, 100, 30, 10 g/ha; about 14 days
Procedure, shortened: (§2)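 Under 18/13 °C (ALOMY, POLCO) or 30/21 °C (PANMI, DIGSA) day/night, pre-emergence soil-surface treatments at 300, 100, 30 and 10 g/ha were evaluated after roughly 14 days. GR80 reflects percent inhibition relative to untreated plants.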

SETVI (green foxtail) = assay: Pre-emergence herbicidal activity, cool season; assay type: in vivo, Setaria viridis; conditions: GR80 = lowest tested rate (300, 100, 30, 10 g/ha) with 80% or greater inhibition; approx. 14 days after treating; 18/13° C.
Procedure, shortened: as §1

DATST (jimsonweed) = assay: Pre-emergence herbicidal activity, warm season; assay type: in vivo, Datura stramonium; conditions: GR80 = lowest tested rate (300, 100, 30, 10 g/ha) with 80% or greater inhibition; approx. 14 days after treating; 30/21° C.
Experimental: (§3) Tables 5 to 8 summarize results of tests conducted as described below to determine the pre-emergence herbicidal activity, in the form of a GR80 value, of illustrative compounds of this invention. […] Compounds of the invention were typically applied at rates of 300, 100, 30, and 10 g/ha. Where herbicidal activity was evident but 80% inhibition was not achieved at the highest rate tested, an asterisk (*) is shown in the following tables.
(§4) The pre-emergence tests were conducted by the following procedure. Topsoil was sieved to pass through a 1.27 cm screen. Fertilizer was added to the topsoil and the mixture was then sterilized by heating. The topsoil mixture was placed in a pot and compacted to a depth of 1.0 to 1.25 cm from the top of the pot. Seeds of each of several monocotyledonous and dicotyledonous annual plant species were placed on top of the soil. Additional soil was subsequently placed over the seeds to level-fill the pot. A known amount of each test compound dissolved or suspended in an appropriate organic solvent was diluted with a 50:50 mix of acetone and water and applied to the surface of the soil. After treatment the plants were placed in a greenhouse where they received 0.64 cm of overhead irrigation. All subsequent watering consisted of a light overhead mist and/or subirrigation as needed for germination and growth. Tables 5 and 6 below relate to warm season plant species which were placed after pre-emergence treatment in a greenhouse with a 30/21° C. day/night temperature regime. Tables 7 and 8 below relates to cool season plant species placed after pre-emergence treatment in a greenhouse or growth chamber with an 18/13° C. day/night temperature regime.
(§5) Approximately 14 days after planting and treating, the plants were observed and herbicidal efficacy recorded as percent inhibition by comparison with untreated plants.
(§6) The plant species usually regarded as weeds which were utilized in the tests are identified in the tables below according to the following legend, in which “d” indicates a dicotyledonous species and “m” a monocotyledonous species. All monocotyledonous species included in the tests herein are grasses.

ABUTH (velvetleaf) = assay: Pre-emergence herbicidal activity, warm season; assay type: in vivo, Abutilon theophrasti; conditions: GR80 = lowest tested rate (300, 100, 30, 10 g/ha) with 80% or greater inhibition; approx. 14 days after treating; 30/21° C.
Experimental: as §3, §4, §5, §6

[5] = system: CIRAR (canada thistle (seedling)); assay: Pre-emergence herbicidal activity, warm season; assay type: in vivo, Cirsium arvense; conditions: GR80 = lowest tested rate (300, 100, 30, 10 g/ha) with 80% or greater inhibition; approx. 14 days after treating; 30/21° C.
Experimental: as §3, §4, §5, §6

[6] = system: AGSST (creeping bentgrass); assay: Pre-emergence herbicidal activity, cool season; assay type: in vivo, Agrostis stolonifera; conditions: GR80 = lowest tested rate (300, 100, 30, 10 g/ha) with 80% or greater inhibition; approx. 14 days after treating; 18/13° C.
Procedure, shortened: as §1

DIGSA (large crabgrass) = assay: Pre-emergence herbicidal activity, warm season; assay type: in vivo, Digitaria sanguinalis; conditions: GR80 = lowest tested rate (300, 100, 30, 10 g/ha) with 80% or greater inhibition; approx. 14 days after treating; 30/21° C.
Procedure, shortened: as §2

ALOMY (blackgrass) = assay: Pre-emergence herbicidal activity, cool season; assay type: in vivo, Alopecurus myosuroides; conditions: GR80 = lowest tested rate (300, 100, 30, 10 g/ha) with 80% or greater inhibition; approx. 14 days after treating; 18/13° C.
Procedure, shortened: as §2

SETFA (giant foxtail) = assay: Pre-emergence herbicidal activity, warm season; assay type: in vivo, Setaria faberi; conditions: GR80 = lowest tested rate (300, 100, 30, 10 g/ha) with 80% or greater inhibition; approx. 14 days after treating; 30/21° C.
Procedure, shortened: as §1

SOLNI (black nightshade) = assay: Pre-emergence herbicidal activity, warm season; assay type: in vivo, Solanum nigrum; conditions: GR80 = lowest tested rate (300, 100, 30, 10 g/ha) with 80% or greater inhibition; approx. 14 days after treating; 30/21° C.
Procedure, shortened: as §1

[7] = system: BRAPP (broadleaf signalgrass); assay: Pre-emergence herbicidal activity, warm season; assay type: in vivo, Brachiaria platyphylla; conditions: GR80 = lowest tested rate (300, 100, 30, 10 g/ha) with 80% or greater inhibition; approx. 14 days after treating; 30/21° C.
Experimental: as §3, §4, §5, §6

SORVU (shattercane) = assay: Pre-emergence herbicidal activity, warm season; assay type: in vivo, Sorghum vulgare; conditions: GR80 = lowest tested rate (300, 100, 30, 10 g/ha) with 80% or greater inhibition; approx. 14 days after treating; 30/21° C.
Experimental: as §3, §4, §5, §6

[8] = system: PANMI (wild proso millet); assay: Pre-emergence herbicidal activity, warm season; assay type: in vivo, Panicum miliaceum; conditions: GR80 = lowest tested rate (300, 100, 30, 10 g/ha) with 80% or greater inhibition; approx. 14 days after treating; 30/21° C.
Procedure, shortened: as §2

[9] = system: SORHA (johnsongrass (seedling)); assay: Pre-emergence herbicidal activity, warm season; assay type: in vivo, Sorghum halepense; conditions: GR80 = lowest tested rate (300, 100, 30, 10 g/ha) with 80% or greater inhibition; approx. 14 days after treating; 30/21° C.
Procedure, shortened: as §1

ECHCG (barnyardgrass) = assay: Pre-emergence herbicidal activity, warm season; assay type: in vivo, Echinochloa crus-galli; conditions: GR80 = lowest tested rate (300, 100, 30, 10 g/ha) with 80% or greater inhibition; approx. 14 days after treating; 30/21° C.
Procedure, shortened: as §1

POROL (common purslane) = assay: Pre-emergence herbicidal activity, warm season; assay type: in vivo, Portulaca oleracea; conditions: GR80 = lowest tested rate (300, 100, 30, 10 g/ha) with 80% or greater inhibition; approx. 14 days after treating; 30/21° C.
Experimental: as §3, §4, §5, §6

AMARE (redroot pigweed) = assay: Pre-emergence herbicidal activity, warm season; assay type: in vivo, Amaranthus retroflexus; conditions: GR80 = lowest tested rate (300, 100, 30, 10 g/ha) with 80% or greater inhibition; approx. 14 days after treating; 30/21° C.
Experimental: as §3, §4, §5, §6

Compound | Pre-emergence activity (GR80) CHEAL [1] | Pre-emergence activity GR80, STEME (STEME (common chickweed)) | Pre-emergence activity GR80, GALAP [2] | Pre-emergence activity GR80, SASKR (SASKR (russian thistle)) | Pre-emergence activity GR80, LAMPU [3] | Pre-emergence activity GR80, VERPE [4] | Pre-emergence activity GR80, SINAR (SINAR (wild mustard)) | Pre-emergence activity GR80, POLCO (POLCO (wild buckwheat)) | Pre-emergence activity (GR80) SETVI (SETVI (green foxtail)) | Pre-emergence activity (GR80) DATST (DATST (jimsonweed)) | Pre-emergence activity (GR80) ABUTH (ABUTH (velvetleaf)) | further results
CCSC(F)(F)S(=O)(=O)c1ncn(C(=S)N(CC)CC)n1 [Example 58] | 300 g/ha | 300 g/ha | 300 g/ha | 300 g/ha | 300 g/ha | 300 g/ha | [empty] | 300 g/ha | 300 g/ha | 300 g/ha | – | –
C#CCN(C)C(=O)n1cnc(S(=O)(=O)C(F)(F)C(F)F)n1 [Example 66] | – | [empty] | [empty] | 300 g/ha | [empty] | 100 g/ha | [empty] | 300 g/ha | – | – | 300 g/ha | –
O=C(N1CCOCC1)n1cnc(S(=O)(=O)C(F)(F)Cl)n1 [Example 84] | – | [empty] | [empty] | [empty] | 300 g/ha | [empty] | [empty] | 300 g/ha | – | 300 g/ha | – | –
CCCN(CC)C(=O)n1cnc(S(=O)(=O)C(F)(F)Cl)n1 [Example 87] | 300 g/ha | [empty] | 300 g/ha | [empty] | 100 g/ha | 100 g/ha | [empty] | [empty] | 100 g/ha | – | – | Pre-emergence activity (GR80) CIRAR [5]: 300 g/ha; Pre-emergence activity (GR80) AGSST [6]: 100 g/ha; Pre-emergence activity (GR80) DIGSA (DIGSA (large crabgrass)): 300 g/ha; Pre-emergence activity (GR80) ALOMY (ALOMY (blackgrass)): 100 g/ha; Pre-emergence activity (GR80) SETFA (SETFA (giant foxtail)): 300 g/ha; Pre-emergence activity (GR80) SOLNI (SOLNI (black nightshade)): 100 g/ha; Pre-emergence activity (GR80) BRAPP [7]: 300 g/ha; Pre-emergence activity (GR80) SORVU (SORVU (shattercane)): 300 g/ha; Pre-emergence activity (GR80) PANMI [8]: 30 g/ha; Pre-emergence activity (GR80) SORHA [9]: 100 g/ha; Pre-emergence activity (GR80) ECHCG (ECHCG (barnyardgrass)): 100 g/ha; Pre-emergence activity (GR80) POROL (POROL (common purslane)): 100 g/ha; Pre-emergence activity (GR80) AMARE (AMARE (redroot pigweed)): 300 g/ha
CON(C)C(=O)n1cnc(S(=O)(=O)C(F)(F)Cl)n1 [Example 93] | – | [empty] | [empty] | [empty] | [empty] | 300 g/ha | [empty] | [empty] | – | – | 100 g/ha | –
